One series has as its system sleep apnea. Particulars: cited from earlier work; for effect in individuals with central apnea: central apneas.
The test system of a further series is apnea. The note with it: animal model of sleep apnea; cited from earlier work.
In series [1] the test system is intertrigeminal region of the brainstem. The note with it: administration into the brainstem; cited from earlier work.
Setting [2] is: individuals with obstructive sleep apnea.

Protocol for spontaneous apneas: Adult, male Sprague-Dawley rats (Sasco-King, Wilmington, Mass.; usually 8 per test group; 300 g) are maintained on a 12-hour light (08:00–20:00 hour)/12-hour dark (20:00–08:00 hour) cycle for one week, housed in individual cages and given ad libitum access to food and water. Following the one week of acclimatization, animals are subjected to the following surgical procedures.
Acclimatized animals are anesthetized for the implantation of cortical electrodes for electroencephalogram (EEG) recording and neck muscle electrodes for electromyogram (EMG) recording using a mixture of ketamine (Vedco, Inc., St. Joseph, Mo.; 100 mg/ml) and acetylpromazine (Vedco, Inc., St. Joseph, Mo.; 10 mg/ml; 4:1, volume/volume) at a volume of 1 ml/kg body weight. The surface of the skull is exposed surgically and cleaned with a 20% solution of hydrogen peroxide followed by a solution of 95% isopropyl alcohol. Next, a dental preparation of sodium fluoride (Flura-GEL®, Saslow Dental, Mt. Prospect, Ill.) is applied to harden the skull above the parietal cortex and allowed to remain in place for 5 minutes. The fluoride mixture is then removed from the skull above the parietal cortex. The EEG electrodes consisting of four stainless steel machine screws, having leads attached thereto, are threaded into the skull to rest on the dura over the parietal cortex. A thin layer of Justi® resin cement (Saslow Dental, Mt. Prospect, Ill.) is applied to cover the screw heads (of screws implanted in the skull) and surrounding skull to further promote the adhesion of the implant. EMG electrodes consisting of two ball-shaped wires are inserted into the bilateral-neck musculature. All leads (i.e., EEG and EMG leads) are soldered to a miniature connector (39F1401, Newark Electronics, Schaumburg, Ill.). Lastly, the entire assembly is fixed to the skull with dental cement.
After surgery, all animals are allowed to recover for one week before being subjected to another surgery that involved implantation of a radiotelemetry transmitter (TA11-PXT, Data Sciences International, St. Paul, Minn.) for monitoring blood pressure (BP) and heart period (HP), estimated as pulse interval. After the animals are anesthetized (as described above), the hair from the subxiphoid space to the pelvis is removed. The entire area is scrubbed with iodine and rinsed with alcohol and saline. A 4–6 cm midline abdominal incision is made to allow good visualization of the area from the bifurcation of the aorta to the renal arteries. A retractor is used to expose the contents of the abdomen and the intestine is held back using saline moistened gauze sponges. […]
Physiological parameters (see below) from each animal are recorded on numerous occasions in random order, with recordings for an individual animal separated by at least 3 days.

Take `CCN1CC(CCN2CCOCC2)C(c2ccccc2)(c2ccccc2)C1=O` (stereo not shown) [doxapram]: in the series with sleep apnea (setting [2]), the “average arterial oxygen saturation” value is reported as “did not alter” and the length of apneas entry is on record as “decrease the length of apneas”. Take `CC(=O)Nc1nnc(S(N)(=O)=O)s1` [acetazolamide]: in the series on sleep apnea, the “effect in individuals with central apnea” value is on record as “variable improvement” and the “effect in individuals with obstructive sleep apnea (OSAS)” value (from here on “effect in individuals … (OSAS)”) is “increase in obstructive apneas”. As to `Nc1ncnc2c1ncn2[C@@H]1O[C@H](CO)[C@@H](O)[C@H]1O` [adenosine], the effect on apnea entry in the series with apnea is “somewhat effective in reducing apnea”.

`Nc1nc2ccc(OC(F)(F)F)cc2s1` [riluzole]: the “average decrease in apnea expression (apneas per hour of NREM sleep)” value with spontaneous apneas (NREM sleep, 4.0 mg/kg intraperitoneal 15 min before 6 h recording, vs saline, p=0.05) is reported as 31%. Moreover, the “animals with a decrease in apnea expression” value in the series with spontaneous apneas (NREM sleep, 4.0 mg/kg intraperitoneal, vs saline) is 5 of 7. Also, the “average decrease in apnea expression (apneas per hour of REM sleep)” value with spontaneous apneas (REM sleep, 4.0 mg/kg intraperitoneal 15 min before 6 h recording, vs saline, p=0.11) was 27%. The “overall effect on production of spontaneous sleep apneas” value in the series on spontaneous apneas (both NREM and REM sleep) is reported as “physiologically significant decrease”. Consider `N[C@@H](CCC(=O)O)C(=O)O` [glutamate], for which the “effect on breathing (reflex apneas)” value in series [1] is reported as “provoked reflex apneas”. medroxyprogesterone: the “effect in individuals … (OSAS)” value with sleep apnea is listed as “no consistent benefit”. Turning to `CNCCCC1c2ccccc2C=Cc2ccccc21` [Protriptyline], the “effect in individuals … (OSAS)” value in the series on sleep apnea was “variable results”. In addition, the side effects result in the series with sleep apnea (several small trials in OSAS) was “frequent and significant side effects”. `C=CCN1CC[C@]23c4c5ccc(O)c4O[C@H]2C(=O)CC[C@@]3(O)[C@H]1C5` [naloxone]: the “effect in individuals … (OSAS)” value in the series with sleep apnea is “only slightly helpful”.

As to `Cn1c(=O)c2[nH]cnc2n(C)c1=O` [theophylline], in the series with sleep apnea, the “effect in individuals with central apnea” value is recorded as “may benefit” and the “effect in individuals … (OSAS)” value is listed as “of no use”.
